Data published in patent publication US4605614A, “Method for measuring plasmin” (Nitto Boseki Co., Ltd., priority 1981, dated 1986).
Where a SMILES comes first, the peptide text is derived from it.

How the values were obtained:
[1] = target: Factor-Xa (FXa) (Bos taurus, UniProt P00743); format: biochemical, Cow; conditions: TABLE 3, PNA substrates; So = 0.54 mmole/l; pH 8.4; 37° C., 10 minutes; 0.4 U/ml
Protocol: (§1) The specificities of the novelly synthesized substrates were tested by reacting them with various enzymes respectively.
(§2) (1) Substrate solution concentration: 35 mmole/liter H2 O
(§3) (2) Buffer: Tris-hydrochloric acid buffer 50 mmole/l, NaCl 150 mmole/l (0.875%) was employed, and the pH for reaction was as follows depending on the enzyme.
(§4) 2,6-Xylenol 7.0 mmole+NaIO4 1.5 mmole/0.2N KOH
(§5) 0.5 ml of the buffer solution and 0.05 ml of the enzyme reagent were taken into a silicon-treated hard glass test tube or a plastic test tube, and preheated in a constant temperature bath at 37° C. for 5 minutes. Thereafter, 0.1 ml of the substrate solution was added to effect the enzymatic reaction at 37° C. for 10 minutes. Exactly after 10 minutes, 2.5 ml of the reaction terminating solution or the terminating and color developing reagent solution was added to terminate the enzymatic reaction, and after allowing to stand at 25° C. for 10 minutes, the absorbance at 405 nm or 645 nm was measured, in which [drawing 49]

[2] = target: Plasmin (PL) (Sus scrofa, UniProt P06867); format: biochemical, Pig; conditions: TABLE 3, PNA substrates; So = 0.54 mmole/l; pH 7.4; 37° C., 10 minutes; 0.32 CU/ml
Protocol: as §2, §3
Plasmin Pig Sigma (U.S.A.)
as §5

[3] = target: Thrombin (TH) (Bos taurus, UniProt P00735); format: biochemical, Cow; conditions: TABLE 3, PNA substrates; So = 0.54 mmole/l; pH 8.4; 37° C., 10 minutes; 1.0 NIH/ml
Protocol: as §1, §2, §3, §4, §5

[4] = tested on: coagulation and linear dissolution related enzymes such as thrombin, Factor Xa, UK; conditions: prior substrate, cited from earlier work
[5] = target: T1, plasmin (pig) (Sus scrofa, UniProt P06867); assay: Km, Vmax and Vmax/Km of substrates for plasmin (pig); format: biochemical, Porcine (pig); conditions: for Vmax (× 10^-6) [mole/min/Cu]: Porcine Plasmin, comparison table in description; for V/Km (× 10^-3) / Vmax (× 10^7): TABLE 1, PNA substrates, plasmin (pig); for Vmax (× 10^7): 405 nm; for Relative ratio: TABLE 1, V/Km of each sample divided by that of S2251
[6] = target: Kallikrein (KL) (Sus scrofa, UniProt P00752); format: biochemical, Pig; conditions: TABLE 3, PNA substrates; So = 0.54 mmole/l; pH 7.9; 37° C., 10 minutes; 1.0 BAEE-U/ml
Protocol: as §1, §2, §3, §4, §5

[7] = target: Urokinase (UK) (Homo sapiens, UniProt P00749); format: biochemical; conditions: TABLE 3, PNA substrates; So = 0.54 mmole/l; pH 8.2; 37° C., 10 minutes; 1000 IU/ml
Protocol: as §1, §2, §3, §4, §5

[8] = target: T1, plasmin (pig); conditions: prior substrate; enzyme not stated in the sentence (plasmin substrates); cited from earlier work
[9] = tested on: Human Thrombin; conditions: read-out: Michaelis's constant (Km); cited from earlier work
[10] = tested on: Human Plasmin; conditions: read-out: Michaelis's constant (Km); cited from earlier work

Kallikrein (KL), sequence (P00752 8-246): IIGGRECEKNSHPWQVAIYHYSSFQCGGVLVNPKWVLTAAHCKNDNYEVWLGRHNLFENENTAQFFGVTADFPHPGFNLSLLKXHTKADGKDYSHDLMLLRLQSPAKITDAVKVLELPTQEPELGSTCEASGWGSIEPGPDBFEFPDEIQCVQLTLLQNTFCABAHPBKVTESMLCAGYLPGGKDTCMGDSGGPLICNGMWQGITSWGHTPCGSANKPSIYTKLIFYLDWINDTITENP
Thrombin (TH), sequence (P00735 44-625): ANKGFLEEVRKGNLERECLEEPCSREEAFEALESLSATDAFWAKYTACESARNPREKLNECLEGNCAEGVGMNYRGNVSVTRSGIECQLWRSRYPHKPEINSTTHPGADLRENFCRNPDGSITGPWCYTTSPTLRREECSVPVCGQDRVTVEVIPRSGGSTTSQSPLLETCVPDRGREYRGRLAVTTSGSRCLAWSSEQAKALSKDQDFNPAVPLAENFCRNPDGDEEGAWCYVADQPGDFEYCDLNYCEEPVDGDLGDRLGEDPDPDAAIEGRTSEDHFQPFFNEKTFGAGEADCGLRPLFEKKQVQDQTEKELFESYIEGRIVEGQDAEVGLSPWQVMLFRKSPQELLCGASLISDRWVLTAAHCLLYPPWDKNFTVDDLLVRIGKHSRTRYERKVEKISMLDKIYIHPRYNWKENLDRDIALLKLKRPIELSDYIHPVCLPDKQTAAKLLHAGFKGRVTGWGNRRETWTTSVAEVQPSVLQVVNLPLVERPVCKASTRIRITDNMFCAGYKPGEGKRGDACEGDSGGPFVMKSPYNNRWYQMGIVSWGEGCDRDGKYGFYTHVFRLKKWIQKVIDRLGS
Factor-Xa (FXa), sequence (P00743 41-180): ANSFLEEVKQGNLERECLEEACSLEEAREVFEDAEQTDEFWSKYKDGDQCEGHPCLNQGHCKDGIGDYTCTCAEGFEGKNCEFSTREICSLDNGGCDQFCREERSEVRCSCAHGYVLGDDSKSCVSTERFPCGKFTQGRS
Factor-Xa (FXa), sequence (P00743 234-492): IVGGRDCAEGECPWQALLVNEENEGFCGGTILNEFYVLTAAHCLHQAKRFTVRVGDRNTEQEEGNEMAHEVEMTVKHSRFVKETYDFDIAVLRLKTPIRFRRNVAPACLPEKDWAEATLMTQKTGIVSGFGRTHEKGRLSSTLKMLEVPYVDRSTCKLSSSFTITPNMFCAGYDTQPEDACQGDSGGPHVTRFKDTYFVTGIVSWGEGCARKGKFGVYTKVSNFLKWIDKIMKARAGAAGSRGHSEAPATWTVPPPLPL
Plasmin (PL), sequence (P06867 97-809): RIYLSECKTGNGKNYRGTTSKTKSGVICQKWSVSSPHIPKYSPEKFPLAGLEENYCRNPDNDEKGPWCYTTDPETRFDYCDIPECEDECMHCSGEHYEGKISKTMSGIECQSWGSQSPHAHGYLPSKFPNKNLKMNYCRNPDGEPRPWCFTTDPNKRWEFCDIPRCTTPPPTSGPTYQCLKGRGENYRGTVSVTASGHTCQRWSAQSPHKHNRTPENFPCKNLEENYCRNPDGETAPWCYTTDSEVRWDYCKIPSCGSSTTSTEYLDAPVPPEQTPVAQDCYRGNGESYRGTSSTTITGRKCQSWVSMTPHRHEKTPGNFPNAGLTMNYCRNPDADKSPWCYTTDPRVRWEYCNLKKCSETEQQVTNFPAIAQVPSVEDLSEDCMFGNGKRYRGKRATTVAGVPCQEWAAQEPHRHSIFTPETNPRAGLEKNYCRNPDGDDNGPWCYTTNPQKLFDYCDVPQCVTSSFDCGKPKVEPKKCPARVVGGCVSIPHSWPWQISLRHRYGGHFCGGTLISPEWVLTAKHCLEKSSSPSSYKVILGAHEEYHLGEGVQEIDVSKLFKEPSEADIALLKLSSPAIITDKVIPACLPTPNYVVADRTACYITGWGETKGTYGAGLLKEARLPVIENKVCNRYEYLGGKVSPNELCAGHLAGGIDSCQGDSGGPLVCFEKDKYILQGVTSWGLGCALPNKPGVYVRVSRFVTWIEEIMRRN
T1 sequence (P06867 97-809): as above

Row | SMILES | Selectivity FXa, absorbance (O.D.) at 405 nm [1] [O.D.] | Selectivity PL, absorbance (O.D.) at 405 nm [2] [O.D.] | Selectivity TH, absorbance (O.D.) at 405 nm [3] [O.D.] | reaction with coagulation and linear dissolution related enzymes such as thrombin, Factor Xa, UK ([4]; in words) | Vmax (× 10^-6) [mole/min/Cu] [5] | V/Km (× 10^-3) [5] | Vmax (× 10^7) [5] | Relative ratio [5] | Selectivity KL, absorbance (O.D.) at 405 nm [6] [O.D.] | Selectivity UK, absorbance (O.D.) at 405 nm [7] [O.D.] | Km value compared with S-2251 (in words) [8] | Km [9] [µM] | selectivity (in words) [4] | Km [10] [µM]
1 | Cc1ccc(S(=O)(=O)NCC(=O)N2CCC[C@H]2C(=O)N[C@@H](CCCCN)C(=O)Nc2ccc([N+](=O)[O-])cc2)cc1 [CHR-PL, Tos-Gly-Pro-Lys-PNA, reference compound] (HELM PEPTIDE1{[Cc1ccc(S(=O)(=O)[*:2])cc1].G.P.K.[O=[N+]([O-])c1ccc(N[*:1])cc1]}$$$$V2.0) | 0.026 | 0.647 | 0.057 | considerably reacts | 6.0 × 10^-6 mole/min/Cu | 21.628 × 10^-3 | 60.067 × 10^7 | 1.889 | 0.004 | 0.069 | smaller than that of S-2251 | – | – | –
2 | NCCCC[C@H](NC(=O)[C@H](Cc1ccccc1)NC(=O)[C@H](N)CCC(=O)NCCCc1ccccc1)C(=O)Nc1ccc([N+](=O)[O-])cc1 [NPN-5] | 0.005 | 0.525 | 0 | – | – | – | 24.892 × 10^7 | 5.534 | 0.014 | 0.001 | – | – | – | –
3 | NCCCC[C@H](NC(=O)[C@H](Cc1ccccc1)NC(=O)[C@H](N)CCC(=O)NCCCCc1ccccc1)C(=O)Nc1ccc([N+](=O)[O-])cc1 [NPN-6] | 0.003 | 0.646 | 0 | – | – | – | 28.209 × 10^7 | 5.427 | 0.018 | 0.012 | – | – | – | –
4 | Cc1ccc(CCNC(=O)CC[C@@H](N)C(=O)N[C@@H](Cc2ccccc2)C(=O)N[C@@H](CCCCN)C(=O)Nc2ccc([N+](=O)[O-])cc2)cc1 [NPN-7] | 0.008 | 0.427 | 0.001 | – | – | – | 20.908 × 10^7 | 4.638 | 0.011 | 0.002 | – | – | – | –
5 | NCCCC[C@H](NC(=O)[C@H](Cc1ccccc1)NC(=O)[C@H](N)CCC(=O)OCCc1ccccc1)C(=O)Nc1ccc([N+](=O)[O-])cc1 [NPN-8] | 0.005 | 0.181 | 0 | – | – | – | 28.542 × 10^7 | 8.019 | 0.014 | 0.003 | – | – | – | –
6 | Cc1ccc(CCOC(=O)CC[C@@H](N)C(=O)N[C@@H](Cc2ccccc2)C(=O)N[C@@H](CCCCN)C(=O)Nc2ccc([N+](=O)[O-])cc2)cc1 [NPN-9] | 0.006 | 0.299 | 0 | – | – | – | 30.202 × 10^7 | 6.171 | 0.016 | 0.002 | – | – | – | –
7 | Cc1ccc(C(=O)NCCCC[C@@H](N)C(=O)N[C@@H](Cc2ccccc2)C(=O)N[C@@H](CCCCN)C(=O)Nc2ccc([N+](=O)[O-])cc2)cc1 [NPN-10] | 0.006 | 0.335 | 0.001 | – | – | – | 26.218 × 10^7 | 14.764 | 0.011 | 0.001 | – | – | – | –
8 | NCCCC[C@H](NC(=O)[C@H](Cc1ccccc1)NC(=O)[C@H](N)CCCCNS(=O)(=O)c1ccc2ccccc2c1)C(=O)Nc1ccc([N+](=O)[O-])cc1 [NPN-11] | 0.005 | 0.171 | 0 | – | – | – | 23.895 × 10^7 | 11.660 | 0.001 | 0.001 | – | – | – | –
9 | N=C(N)NCCC[C@H](NC(=O)[C@@H]1CCCCN1C(=O)[C@H](N)Cc1ccccc1)C(=O)Nc1ccc([N+](=O)[O-])cc1 [S-2238] | – | – | – | – | – | – | – | – | – | – | – | 7 | – | –
10 | CC(C)C[C@H](NC(=O)[C@H](N)C(C)C)C(=O)N[C@@H](CCCCN)C(=O)Nc1ccc([N+](=O)[O-])cc1 [S-2251, H-D-Val-Leu-Lys-PNA, reference compound] (HELM PEPTIDE1{[dV].L.K.[O=[N+]([O-])c1ccc(N[*:1])cc1]}$$$$V2.0) | 0.007 | 0.306 | 0.001 | – | 4.0 × 10^-6 mole/min/Cu | 11.449 × 10^-3 | 39.876 × 10^7 | 1.000 | 0.017 | 0.001 | – | – | comparatively good selectivity | 300
